DBAASP
≈ marks a conversion by molar mass, not a printed value.

Legend:
Test in all cases: ≥ marks a high value that may be exact or a test limit, other limits are often not marked, values filed in µg/mL are converted to µM
[1] = system: Bacillus subtilis var. niger ATCC 9372
[2] = system: Bacillus anthracis Sterne 34F2
Escherichia coli K91BK = system: Escherichia coli K91BK
[3] = system: Micrococcus luteus ATCC 9341
[4] = system: Escherichia coli ATCC 25922
Saccharomyces cerevisiae = system: Saccharomyces cerevisiae
[5] = system: Staphylococcus aureus ATCC 25923
Micrococcus luteus = system: Micrococcus luteus
[6] = system: Pseudomonas aeruginosa ATCC 15692
Staphylococcus aureus = system: Staphylococcus aureus
Escherichia coli = system: Escherichia coli
[7] = system: Staphylococcus epidermidis
Pseudomonas aeruginosa = system: Pseudomonas aeruginosa
Enterococcus faecalis = system: Enterococcus faecalis
Klebsiella pneumoniae = system: Klebsiella pneumoniae
Acinetobacter baumannii = system: Acinetobacter baumannii

SMILES	MIC [1] [µM]	MIC [2] [µM]	MIC (Escherichia coli K91BK) [µM]	MIC [4] [µM]	MIC (Saccharomyces cerevisiae) [µM]	MIC [5] [µM]	MIC (Micrococcus luteus) [µM]	MIC [6] [µM]	further results
CC[C@H](C)[C@H](NC(=O)[C@H](CCCN=C(N)N)NC(=O)[C@H](CCCN=C(N)N)NC(=O)[C@H](CC(C)C)NC(=O)[C@H](CC(N)=O)NC(=O)[C@H](CCCCN)NC(C)=O)C(=O)N[C@H](C(=O)N[C@@H](CCCN=C(N)N)C(=O)N[C@@H](CCCCN)C(=O)N[C@H](C(=O)N[C@H](C(=O)N[C@@H](Cc1cnc[nH]1)C(=O)N[C@H](C(=O)N[C@H](C(=O)N[C@@H](CCCCN)C(=O)N[C@@H](CCCCN)C(=O)N[C@@H](Cc1ccc(O)cc1)C(=O)NCC(N)=O)[C@@H](C)CC)[C@@H](C)CC)[C@@H](C)CC)[C@@H](C)CC)[C@@H](C)O [KNLRRITRKIIHIIKKYG]	1.56 (≈ 3.58 µg/mL)	25 (≈ 57.3 µg/mL)	≥ 100	–	–	–	–	–	–
CC[C@H](C)[C@H](N)C(=O)N[C@@H](CC(C)C)C(=O)N1CCC[C@H]1C(=O)N[C@@H](C)C(=O)N[C@@H](CCCCN)C(=O)N[C@@H](Cc1c[nH]c2ccccc12)C(=O)N1CCC[C@H]1C(=O)N[C@@H](Cc1c[nH]c2ccccc12)C(=O)N[C@@H](Cc1c[nH]c2ccccc12)C(=O)N1CCC[C@H]1C(=O)N[C@@H](Cc1c[nH]c2ccccc12)C(=O)N[C@@H](CCCN=C(N)N)C(=O)N[C@@H](CCCN=C(N)N)C(N)=O [ILPAKWPWWPWRR]	–	–	–	–	–	–	–	–	MIC [3]: 0.4 µM (≈ 0.716 µg/mL)
CC[C@H](C)[C@H](NC(=O)[C@H](C)NC(=O)[C@H](CCCCN)NC(=O)[C@H](C)NC(=O)[C@H](C)NC(=O)[C@H](CCCCN)NC(=O)CNC(=O)[C@H](Cc1ccccc1)NC(=O)[C@H](C)NC(=O)[C@@H](NC(=O)CNC(=O)[C@H](C)NC(=O)[C@H](CCCCN)NC(=O)[C@@H](NC(=O)[C@H](C)NC(=O)[C@H](CCSC)NC(=O)CN)[C@@H](C)O)[C@@H](C)O)C(=O)N[C@H](C(=O)NCC(=O)N[C@@H](C)C(=O)N[C@@H](C)C(=O)N[C@@H](CC(C)C)C(=O)O)[C@@H](C)CC [GMATKAGTAFGKAAKAIIGAAL]	–	–	–	16 (≈ 32.3 µg/mL)	≥ 64	> 256	2 (≈ 4.04 µg/mL)	≥ 128	–
CC(=O)N[C@@H](CCCCN)C(=O)N[C@@H](CC(C)C)C(=O)N[C@@H](Cc1c[nH]c2ccccc12)C(=O)N[C@@H](CCCCN)C(=O)N[C@@H](CCCCN)C(=O)N[C@@H](Cc1c[nH]c2ccccc12)C(=O)N[C@@H](CCCCN)C(=O)N[C@@H](CCCCN)C(=O)N[C@@H](Cc1c[nH]c2ccccc12)C(=O)N[C@@H](CC(C)C)C(=O)N[C@@H](CCCCN)C(N)=O [KLWKKWKKWLK]	6.25 (≈ 10.1 µg/mL)	≥ 100	≥ 100	–	–	–	–	–	–
CC[C@H](C)[C@H](NC(=O)CNC(=O)[C@H](CCCN=C(N)N)NC(=O)[C@H](Cc1ccc(O)cc1)NC(=O)[C@H](CC(C)C)NC(=O)[C@H](Cc1cnc[nH]1)NC(=O)CNC(=O)[C@H](Cc1ccccc1)NC(=O)[C@@H](N)Cc1c[nH]c2ccccc12)C(=O)N[C@H](C(=O)N[C@@H](CO)C(=O)N[C@H](C(=O)N[C@H](C(=O)N[C@@H](CCCCN)C(=O)N[C@@H](Cc1cnc[nH]1)C(=O)N[C@H](C(=O)N[C@@H](Cc1cnc[nH]1)C(=O)NCC(=O)N[C@@H](CC(C)C)C(=O)N[C@@H](CC(C)C)C(=O)N[C@@H](CO)C(=O)NCC(=O)O)C(C)C)C(C)C)C(C)C)[C@@H](C)O [WFGHLYRGITSVVKHVHGLLSG]	–	–	–	–	–	–	–	–	MIC (Staphylococcus aureus): 20.6 µM (≈ 50.8 µg/mL); MIC (Escherichia coli): 5.2 µM (≈ 12.8 µg/mL); MIC [7]: 10.3 µM (≈ 25.4 µg/mL); MIC (Pseudomonas aeruginosa): 10.3 µM (≈ 25.4 µg/mL); MIC (Enterococcus faecalis): 10.3 µM (≈ 25.4 µg/mL); MIC (Klebsiella pneumoniae): 21 µM (≈ 51.7 µg/mL); MIC (Acinetobacter baumannii): 5.2 µM (≈ 12.8 µg/mL)
CC[C@H](C)[C@H](NC(=O)[C@H](Cc1ccccc1)NC(=O)CNC(=O)[C@H](CCCCN)NC(=O)[C@H](C)NC(=O)[C@H](Cc1ccccc1)NC(=O)[C@H](CCCCN)NC(=O)[C@H](CCCCN)NC(=O)[C@H](C)NC(=O)[C@H](CO)NC(=O)[C@H](Cc1cnc[nH]1)NC(=O)[C@H](C)NC(=O)[C@@H](NC(=O)[C@H](CCC(=O)O)NC(=O)[C@H](CCCCN)NC(=O)[C@H](CC(C)C)NC(=O)CN)C(C)C)C(=O)N[C@@H](CO)C(=O)NCC(=O)N[C@@H](CC(C)C)C(=O)N[C@H](C(=O)NCC(=O)N[C@@H](CO)C(=O)O)[C@@H](C)O [GLKEVAHSAKKFAKGFISGLTGS]	–	–	–	64 (≈ 149 µg/mL)	≥ 128	> 256	≥ 32	≥ 256	–
